{"source": "ChEMBL document CHEMBL1201862", "about": "“PubChem BioAssay data set” (2004)", "target": "Envelope glycoprotein gp160 (Human immunodeficiency virus 1, UniProt Q6QLK5)", "sequence (Q6QLK5 whole entry, the tested form may be a part)": "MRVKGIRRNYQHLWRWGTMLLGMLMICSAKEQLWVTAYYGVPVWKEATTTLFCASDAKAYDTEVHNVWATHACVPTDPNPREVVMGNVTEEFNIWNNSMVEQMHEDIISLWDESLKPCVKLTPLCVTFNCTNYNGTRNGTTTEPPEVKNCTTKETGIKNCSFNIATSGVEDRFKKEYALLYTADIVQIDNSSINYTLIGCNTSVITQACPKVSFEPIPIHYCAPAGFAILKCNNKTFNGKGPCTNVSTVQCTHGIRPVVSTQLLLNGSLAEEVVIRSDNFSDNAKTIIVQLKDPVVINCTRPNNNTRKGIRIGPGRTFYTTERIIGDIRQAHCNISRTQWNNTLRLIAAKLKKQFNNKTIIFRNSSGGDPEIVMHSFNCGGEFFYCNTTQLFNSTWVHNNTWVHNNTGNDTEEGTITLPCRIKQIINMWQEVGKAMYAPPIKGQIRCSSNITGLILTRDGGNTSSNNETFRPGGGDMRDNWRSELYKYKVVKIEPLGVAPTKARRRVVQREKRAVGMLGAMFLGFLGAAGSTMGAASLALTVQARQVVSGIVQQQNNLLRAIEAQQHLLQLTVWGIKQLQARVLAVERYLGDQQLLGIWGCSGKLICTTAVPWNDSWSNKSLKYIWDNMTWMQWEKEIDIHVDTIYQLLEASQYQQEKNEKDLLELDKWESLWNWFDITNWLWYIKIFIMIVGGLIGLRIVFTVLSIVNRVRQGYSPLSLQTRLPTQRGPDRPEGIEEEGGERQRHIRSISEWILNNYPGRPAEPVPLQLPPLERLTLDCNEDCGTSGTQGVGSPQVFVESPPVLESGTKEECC", "assay": "cell-free HIV fusion peptide-binding blockers – biochemical, uHTS, fluorescence dequenching, […] (AID 1986)", "note": "Active and inactive are the calls of the source. Cut-off read from the data, not from the text of the source: actives have a measured IC50 and inactives only a lower limit."}
{"compound": "O=C(O)CSc1nc(-c2ccc(Cl)cc2)nc2c1oc1ccccc12", "values": [{"measurement": "IC50", "result": "15.4 µM (active)"}]}
{"compound": "COc1cccc(-c2nc(SCC(=O)Nc3nc(-c4ccccc4)c(C)s3)[nH]c(=O)c2C#N)c1", "values": [{"measurement": "IC50", "result": "10.3 µM (active)"}]}
